Laboratory results from patent publication US9993564B2, “Blood brain barrier shuttle” (Hoffmann-La Roche Inc., priority 2014, dated 2018).

Legend:
[1] = in vivo phage display selection (4 rounds) with CSF sampling, sequencing of CSF recovered phage clones; parameters: species or system rat; details: for Reads: CSF recovered phage clones after 4 rounds of in vivo selection in rats, 924 sequencing in total; for Frequency (%): frequency of each peptide related to the 924 total sequencing runs, CSF, after 4 rounds of in vivo selection in rats
[2] = test system: brain blood vessels and capillaries; test: immunohistochemistry of intravenously administered phage clones bound to brain vasculature; format: in vivo; details: FIG. 5, no staining with empty phage
From the text: Specific phage clones were intravenously administered to allow targeting in vivo. Subsequently, immunohistochemistry was used to detect the phages specifically bound to the brain blood vessels and capillaries. […] ID. NO. 1, SEQ. ID. NO. 6 and SEQ. ID. NO.
ID. NO. 8 is linked to SA through an N-terminal biotin. […] ID. NO.

Substance	Reads [1]	Frequency (%) [1] [%]	staining at brain capillaries in the cortex (immunohistochemistry) [2]
8 (RLSSVDSDLSGC; Brain targeting peptide) [compound 8]	26	3.0	–
6 (GRPQKINGARVC; Brain targeting peptide) [compound 6]	29	4.3	–
17 (RRPAPLIMFRMI; Brain targeting peptide) [compound 17]	9	1.0	–
5 (SVHGV; Brain targeting peptide) [compound 5]	40	6.1	–
3 (GFVRFRLSNTR; Brain targeting peptide) [compound 3]	115	12.4	–
LYVLHSRGLWGFKL (displayed on T7 phage; Brain targeting peptide) [SEQ. ID. NO. 1]	–	–	strong and specific staining
2 (LGSVS; Brain targeting peptide) [compound 2]	137	14.8	–
19 (SRYSIGGNNGVT; Brain targeting peptide) [compound 19]	7	0.9	–
18 (DPQILMGVLRSIRGFGVKL; Brain targeting peptide) [compound 18]	9	0.9	–
34 (AVES; Brain targeting peptide) [compound 34]	2	0.2	–
29 (LRPRGAFQRRDFKL; Brain targeting peptide) [compound 29]	3	0.3	–
15 (YSMVFVGIKL; Brain targeting peptide) [compound 15]	10	1.2	–
14 (YAWGGGWVLQWF; Brain targeting peptide) [compound 14]	12	1.6	–
12 (ISNRSHKGLMVG; Brain targeting peptide) [compound 12]	16	1.8	–
22 (NSHAMSC; Brain targeting peptide) [compound 22]	5	0.6	–
30 (ELVHA; Brain targeting peptide) [compound 30]	3	0.3	–
33 (TAVFSALSMLRG; Brain targeting peptide) [compound 33]	2	0.2	–
28 (GCASPASTSFHS; Brain targeting peptide) [compound 28]	3	0.3	–
7 (MRWFFSHASQGR; Brain targeting peptide) [compound 7]	28	3.1	–

Substance	Reads [1]	Frequency (%) [1] [%]	staining at brain capillaries in the cortex (immunohistochemistry) [2]
16 (DVAKVS; Brain targeting peptide) [compound 16]	10	1.0	–
27 (STMRYVGVTCL; Brain targeting peptide) [compound 27]	3	0.4	–
35 (RPRAQGAL; Brain targeting peptide) [compound 35]	2	0.2	–
25 (LPGGSPGHILVC; Brain targeting peptide) [compound 25]	4	0.4	–
21 (WGCNGTEWRGLLGIKL; Brain targeting peptide) [compound 21]	6	0.7	–
23 (STVVCFKGVPTG; Brain targeting peptide) [compound 23]	5	0.5	–
36 (LWVSVPRARIIQ; Brain targeting peptide) [compound 36]	2	0.2	–
10 (YNQSLLQGYRYW; Brain targeting peptide) [compound 10]	21	2.3	–
24 (TWLFSLG; Brain targeting peptide) [compound 24]	4	0.5	–
11 (RSTASTSYPFFF; Brain targeting peptide) [compound 11]	17	2.2	–
31 (FLIQWGAVLSRG; Brain targeting peptide) [compound 31]	2	0.3	–
1 (LYVLHSRGLWGFKL; Brain targeting peptide) [compound 1]	147	15.9	–
GRPQKINGARVC [SEQ. ID. NO. 6]	–	–	strong and specific staining
9 (IGTLTT; Brain targeting peptide) [compound 9]	22	2.8	–
20 (SGSGIGLDRWRV; Brain targeting peptide) [compound 20]	7	0.7	–
26 (GWIPYDGGNRAR; Brain targeting peptide) [compound 26]	4	0.4	–
13 (DAAESVLVGTVR; Brain targeting peptide) [compound 13]	15	1.7	–
4 (KVAWRVFSLFWK; Brain targeting peptide) [compound 4]	57	6.1	–
32 (VRDWAYVYSTVL; Brain targeting peptide) [compound 32]	2	0.2	–
